Results as given in patent US20260327655A1, “SMALL-MOLECULE REGULATED ALTERNATIVE SPLICING” (priority 2023, published 2026).

How the values were obtained:
[1] = test system: RS1-1 and variants; assay: Luciferase induction assay, RS1-1 and variants in HEK-293T cells; format: cell-based, human; conditions: RS1-1, RS1-2, RS1-3, RS1-4, RS1-7, and RS1-9; FIG. 9A; 18 hours
Experimental: (§1) HEK-293T cells were cultured in DMEM+10% FBS, collected after trypsinization, and dispensed into 96-well plates (cell culture-treated). Each well of the plate was seeded with 1.0×10^5 cells in 100 μL culture medium. After a 1-hour incubation in the tissue culture incubator (5% CO2, 37° C.), plasmid DNA was complexed with a transfection reagent, such as Lipofectamine 3000, and added to respective wells on the plate. Each well received 100 ng of plasmid DNA complexed with 0.15 μL Lipofectamine 3000. The plasmids utilized in the experiment encoded a CMV promoter upstream of the RS1-1 variant that controlled the expression of a Firefly Luciferase gene followed by a SV40 polyadenylation signal. After a 10-minute incubation at room temperature, either DMSO vehicle or a splice modulator compound at specified doses was added to the wells of the plate. Plates were then incubated for 18 hours in a tissue culture incubator. Endpoint analysis was performed by adding 100 μL of a Luciferase substrate, such as Steady-Luc Firefly Luciferase substrate, to each well of the assay plate. The liquid contents of each was transferred to a 96-well plate, mixed again for 2 min on an orbital shaker, and incubated at room temperature for 5 min. Finally, the luminescent signal from each well was measured with a plate reader.

[2] = test system: RS1-10, HepG2 cells; assay: RS1-10 performance in HepG2 cells; format: cell-based, human; conditions: CBA promoter, 18 hours, FIG. 10D
Experimental: The human SH-SY5Y neuroblastoma cell line or the human hepatic HepG2 cell line was cultured in EMEM+10% FBS, collected after trypsinization, and then dispensed into 96-well plates (cell culture-treated). Each well of the plate was seeded with 1.0×10^5 cells in 100 μL culture medium. After a 1-hour incubation in the tissue culture incubator (5% CO2, 37 degrees C.), plasmid DNA was complexed with a transfection reagent, such as Lipofectamine 3000, and added to respective wells on the plate. Each well received an equivalent of 100 ng of plasmid DNA complexed with 0.15 μL Lipofectamine 3000 (Opti-MEM I was used as diluent). Triplicate wells were used for each condition tested in the experiment. The plasmids utilized in the human SH-SY5Y neuroblastoma cell line encoded either a CBA promoter or cloned human Synapsin promoter upstream of the RS1-10 construct that controlled the expression of a Firefly Luciferase gene followed by a SV40 polyadenylation signal. The plasmids utilized in the HepG2 cells encoded a CBA promoter upstream of the RS1-10 construct that controlled the expression of a Firefly Luciferase gene followed by a SV40 polyadenylation signal.
After a 10-minute incubation at room temperature, either DMSO vehicle or TA was added to the wells of the plate. […] Finally, the luminescent signal from each well was measured with a plate reader. […]

[3] = test system: RS1-10 minigene (Firefly Luciferase), HEK-293T cells; assay: Luciferase induction assay, RS1-10 with splice modulator compounds in HEK-293T cells; format: cell-based; conditions: Homo sapiens, 18 hours, n of 3, read-out: Mean fold-induction of luciferase (relative to vehicle control)
Experimental: (§2) HEK-293T cells were cultured in DMEM+10% FBS, collected after trypsinization, and then dispensed into 96-well plates (cell culture-treated). Each well of the plate was seeded with 1.0×10^5 cells in 100 μL culture medium. After a 1-hour incubation in a tissue culture incubator (5% CO2, 37 degrees C.), plasmid DNA was complexed with a transfection reagent, such as Lipofectamine 3000, and added to respective wells on the plate. Each well received an equivalent of 100 ng of plasmid DNA complexed with 0.15 μL Lipofectamine. Triplicate wells were used for each condition tested in the experiment. The plasmid utilized in the experiment encoded a CMV promoter upstream of the RS I-10 variant that controlled the expression of a Firefly Luciferase gene followed by a SV40 polyadenylation signal. After a 10-minute incubation at room temperature, either DMSO vehicle or specified compound at specified dose was added to the wells of the plate. Plates were then incubated for 18 hours in a tissue culture incubator. Endpoint analysis was performed by adding 100 uL Steady-Luc Firefly Luciferase substrate to each well of the assay plate. After mixing, the liquid contents of each was transferred to a 96-well plate, mixed again for 2 min on an orbital shaker, and incubated at room temperature for 5 min. Finally, the luminescent signal from each well was measured with a with PerkinElmer Envision plate reader. The results of this assay show RS1-10 responded to the majority of the splice modulator compounds used in a dose responsive manner (FIG. 9C). Bars represent mean+/−standard deviation of 3 wells normalized to vehicle controls.

[4] = test system: RS2-3 minigene (Firefly Luciferase), HEK-293T cells; assay: Luciferase induction assay, RS2-3 with splice modulator compounds in HEK-293T cells; format: cell-based; conditions: Homo sapiens, 18 hours, n of 3, read-out: Mean fold-induction of luciferase (relative to vehicle control)
Experimental: as §2, with “RS2-3” for “RS I-10”, “RS2-3” for “RS1-10”, “used” for “used in a dose responsive manner”, “13C)” for “9C).”

[5] = test system: RS3-13 minigene (Firefly Luciferase), HEK-293T cells; assay: Luciferase induction assay, RS3-13 with splice modulator compounds in HEK-293T cells; format: cell-based; conditions: Homo sapiens, 18 hours, n of 3, read-out: Mean fold-induction of luciferase (relative to vehicle control)
Experimental: as §2, with “RS3-13” for “the RS I-10 variant”, “RS3-13” for “RS1-10”, “used” for “used in a dose responsive manner”, “14D)” for “9C).”

[6] = test system: RS3-1 and variants; assay: Luciferase induction assay, RS3-1 and variants in HEK-293T cells; format: cell-based, human; conditions: 18 hours
Experimental: as §1, with “RS3-1 construct and variants” for “RS1-1 variant”, “116B” for “a splice modulator compound”, “reader. […]” for “reader.”

[7] = test system: RS4-1 and variants; assay: Luciferase induction assay, RS4-1 and variants in HEK-293T cells; format: cell-based, human; conditions: 18 hours, FIGS. 15A, 15B
Experimental: as §1, with “of the RS4-1 construct and variants that controlled” for “of the RS1-1 variant that controlled”, “vehicle or 24 A at specified” for “vehicle or a splice modulator compound at specified”, “adding 100 uL of a” for “adding 100 μL of a”, “plate reader. […]” for “plate reader.”

Row | SMILES | fold induction of luciferase [1] | fold-induction of luciferase [2] | fold induction at 0.1 µM ([3]; RS1-10, 100 nM) | fold induction at 1 µM ([3]; RS1-10, 1,000 nM) | fold induction at 0.1 µM ([4]; RS2-3, 100 nM) | fold induction at 1 µM ([4]; RS2-3, 1,000 nM) | fold induction at 0.1 µM ([5]; RS3-13, 100 nM) | fold induction at 1 µM ([5]; RS3-13, 1,000 nM) | fold induction of luciferase compared to vehicle, constructs vs RS3-1 ([6]; 100 nM (FIGS. 14A, 14B), 200 nM or 600 nM (FIG. 14C)) | fold induction of luciferase, concentration dependence ([6]; RS3-1 variants, 200 nM and 600 nM (FIG. 14C)) | fold-induction of luciferase [7]
1 | Cc1cn2cc(-c3ccc(-c4ccc(C5CNC5)nn4)c(O)c3)cc(F)c2n1.Cl [1 A, 2-(6-(azetidin-3-yl)pyridazin-3-yl)-5-(8-fluoro-2-methylimidazo[1,2-a]pyridin-6-yl)phenol, HCl] | increasing fold induction of luciferase with increasing concentration of splice modulator | showed fold-induction of luciferase | – | – | – | – | – | – | – | – | –
2 | Cc1cn2cc(-c3nc(=O)n4cc(N5CCN[C@@H](C)C5)cc(F)c4n3)cc(F)c2n1 [Compound 116B, (S)-9-fluoro-2-(8-fluoro-2-methylimidazo[1,2-a]pyridine-6-yl)-7-(3-methylpiperazin-1-yl)-4H-pyrido[1,2-a][1,3,5]triazin-4-one] | – | – | 71.8 | 96.6 | 19.8 | 39.9 | 33.4 | 64.6 | Some of the constructs show higher fold induction of luciferase in the presence of 116B compared to vehicle than RS3-1 | higher fold induction of luciferase with higher concentrations of 116B | increasing fold-induction of luciferase with increasing concentrations
